Assay results published in PubChem BioAssay AID248 (DTP/NCI, 2004).
Where “and” joins values, the source holds several entries; their conditions need not be identical. Equal values may be shown once. Inconclusive results and toxic doses are left out. Rule as the data show it: active = T/C of 150% or more; inactive = T/C below 125%.

Test system: L1210 leukemia ip in BDF1 mice, survival T/C
Test: NCI In Vivo Anticancer Drug Screen. Data for tumor model L1210 Leukemia (intraperitoneal) in B6D2F1 (BDF1) mice
Details: endpoint: mean survival time, higher = longer survival
Outline: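 In this screen, tumor-bearing mice given compound are compared to those given vehicle, and their survival values are reported as a treated-to-control quotient.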

[1] = dose: 50.0 mg/kg/injection, schedule: Q01DX009 (ip), vehicle: Klucel (hydroxypropylcellulose) (HPC)
[2] = dose: 25.0 mg/kg/injection, schedule: Q01DX009 (ip), vehicle: saline with Tween-80
[3] = dose: 50.0 mg/kg/injection, schedule: Q01DX009 (ip), vehicle: saline with Tween-80
[4] = dose: 100.0 mg/kg/injection, schedule: Q01DX009 (ip), vehicle: saline with Tween-80
[5] = dose: 100.0 mg/kg/injection, schedule: Q04DX003 (ip), vehicle: saline
[6] = dose: 200.0 mg/kg/injection, schedule: Q04DX003 (ip), vehicle: saline
[7] = dose: 400.0 mg/kg/injection, schedule: Q04DX003 (ip), vehicle: saline
[8] = dose: 25.0 mg/kg/injection, schedule: Q01DX009 (ip), vehicle: saline
[9] = dose: 50.0 mg/kg/injection, schedule: Q01DX001 (ip), vehicle: carboxymethylcellulose (CMC)
[10] = dose: 100.0 mg/kg/injection, schedule: Q01DX001 (ip), vehicle: saline
[11] = dose: 200.0 mg/kg/injection, schedule: Q01DX001 (ip), vehicle: saline
[12] = dose: 50.0 mg/kg/injection, schedule: Q01DX009 (ip), vehicle: saline

Measured: T/C

COC(=O)[C@H]1[C@H]2C[C@@H]3c4[nH]c5cc(OC)ccc5c4CCN3C[C@H]2C[C@@H](OC(=O)/C=C/c2cc(OC)c(OC)c(OC)c2)[C@@H]1OC
inactive: dose: 3.12 mg/kg/injection, schedule: Q01DX009 (ip), vehicle: Klucel (hydroxypropylcellulose) (HPC) 96 % of control | dose: 6.25 mg/kg/injection, schedule: Q01DX009 (ip), vehicle: Klucel (hydroxypropylcellulose) (HPC) 96 % of control | dose: 12.5 mg/kg/injection, schedule: Q01DX009 (ip), vehicle: Klucel (hydroxypropylcellulose) (HPC) 105 % of control | dose: 25.0 mg/kg/injection, schedule: Q01DX009 (ip), vehicle: Klucel (hydroxypropylcellulose) (HPC) 96 % of control | dose: 25.0 mg/kg/injection, schedule: Q04DX003 (ip), vehicle: Klucel (hydroxypropylcellulose) (HPC) 111 % of control | [1] 100 % of control | dose: 50.0 mg/kg/injection, schedule: Q04DX003 (ip), vehicle: Klucel (hydroxypropylcellulose) (HPC) 103 % of control

CC1CCC(C(=O)O)(C(=O)NC(N)=O)CC1C (centres undefined)
inactive: dose: 100.0 mg/kg/injection, schedule: Q01DX001 (ip), vehicle: steriod suspending solution 93 % of control | dose: 200.0 mg/kg/injection, schedule: Q01DX001 (ip), vehicle: steriod suspending solution 110 % of control | dose: 400.0 mg/kg/injection, schedule: Q01DX001 (ip), vehicle: steriod suspending solution 114 % of control

Cc1c(Cl)cccc1CC(Cl)C#N (centres undefined)
inactive: dose: 12.5 mg/kg/injection, schedule: Q01DX009 (ip), vehicle: saline with Tween-80 97 % of control | [2] 90 % of control | [3] 87 % of control | [4] 89 % of control

CSC(S(C)(=O)=O)S(C)(=O)=O
inactive: dose: 100.0 mg/kg/injection, schedule: Q04DX003 (ip), vehicle: saline with Tween-80 90 % of control | dose: 200.0 mg/kg/injection, schedule: Q04DX003 (ip), vehicle: saline with Tween-80 96 % of control | dose: 400.0 mg/kg/injection, schedule: Q04DX003 (ip), vehicle: saline with Tween-80 98 % of control

COc1ccc(C(=O)CCS/C(CCO)=C(\C)N(C=O)Cc2cnc(C)nc2N)cc1
inactive: [5] 101 % of control | [6] 101 % of control | [7] 101 % of control

NCCCC(NC(=O)CCCCCCCCN=C(N)N)C(O)CCCCCCCCN=C(N)N (centres undefined)
inactive: dose: 0.38 mg/kg/injection, schedule: Q01DX Z (ip), vehicle: carboxymethylcellulose (CMC) 102 % of control | dose: 0.75 mg/kg/injection, schedule: Q01DX Z (ip), vehicle: carboxymethylcellulose (CMC) 94 % of control | dose: 1.5 mg/kg/injection, schedule: Q01DX Z (ip), vehicle: carboxymethylcellulose (CMC) 96 % of control | dose: 3.0 mg/kg/injection, schedule: Q01DX Z (ip), vehicle: carboxymethylcellulose (CMC) 107 % of control | dose: 5.0 mg/kg/injection, schedule: Q01DX001 (ip), vehicle: carboxymethylcellulose (CMC) 94 % of control | dose: 6.0 mg/kg/injection, schedule: Q01DX Z (ip), vehicle: carboxymethylcellulose (CMC) 121 % of control | dose: 10.0 mg/kg/injection, schedule: Q01DX001 (ip), vehicle: carboxymethylcellulose (CMC) 100 % of control | dose: 20.0 mg/kg/injection, schedule: Q01DX001 (ip), vehicle: carboxymethylcellulose (CMC) 103 % of control

CC1(C)OC(O)C(C(O)C(O)C(O)C(=O)O)O1 (centres undefined)
inactive: dose: 100.0 mg/kg/injection, schedule: Q04DX002 (ip), vehicle: saline 98 % of control | dose: 200.0 mg/kg/injection, schedule: Q04DX002 (ip), vehicle: saline 109 % of control

O=C(O)CNC(=O)CCl
inactive: [1] 87 % of control | dose: 100.0 mg/kg/injection, schedule: Q01DX009 (ip), vehicle: Klucel (hydroxypropylcellulose) (HPC) 90 % of control | dose: 100.0 mg/kg/injection, schedule: Q04DX003 (ip), vehicle: Klucel (hydroxypropylcellulose) (HPC) 94 % of control | dose: 200.0 mg/kg/injection, schedule: Q04DX003 (ip), vehicle: Klucel (hydroxypropylcellulose) (HPC) 89 % of control

O=C(O)c1ccc(N=Cc2ccccc2O)cc1.[Co]
inactive: dose: 100.0 mg/kg/injection, schedule: Q01DX001 (ip), vehicle: other 96 % of control | dose: 200.0 mg/kg/injection, schedule: Q01DX001 (ip), vehicle: other 112 % of control

COc1ccc2c(c1)N(CCC1CCCCN1C)c1ccccc1S2 (centres undefined)
inactive: dose: 3.12 mg/kg/injection, schedule: Q01DX009 (ip), vehicle: saline 108 % of control and 121 % of control | dose: 6.25 mg/kg/injection, schedule: Q01DX009 (ip), vehicle: saline 105 % of control and 118 % of control | dose: 6.25 mg/kg/injection, schedule: Q04DX003 (ip), vehicle: saline 107 % of control | dose: 12.5 mg/kg/injection, schedule: Q01DX009 (ip), vehicle: saline 111 % of control | dose: 12.5 mg/kg/injection, schedule: Q04DX003 (ip), vehicle: saline 106 % of control | [8] 117 % of control | dose: 25.0 mg/kg/injection, schedule: Q04DX003 (ip), vehicle: saline 117 % of control and 122 % of control | dose: 50.0 mg/kg/injection, schedule: Q04DX003 (ip), vehicle: saline 114 % of control and 117 % of control

CN(C)CCSCCN1c2ccccc2Sc2ccc(Cl)cc21
inactive: [5] 104 % of control

CCOc1ccc2c(ccc(/C=C\c3cc(C)c4cccnc4c3O)[n+]2C)c1
inactive: dose: 25.0 mg/kg/injection, schedule: Q01DX001 (ip), vehicle: carboxymethylcellulose (CMC) 104 % of control | [9] 109 % of control | dose: 100.0 mg/kg/injection, schedule: Q01DX001 (ip), vehicle: carboxymethylcellulose (CMC) 93 % of control

O=C(CBr)OCCCS(=O)(=O)O
inactive: dose: 100.0 mg/kg/injection, schedule: Q01DX009 (ip), vehicle: saline 96 % of control | [5] 105 % of control | dose: 200.0 mg/kg/injection, schedule: Q01DX009 (ip), vehicle: saline 113 % of control | [6] 104 % of control | dose: 400.0 mg/kg/injection, schedule: Q01DX009 (ip), vehicle: saline 102 % of control | [7] 93 % of control

CCCN(CCC)c1ccc(SC#N)cc1
inactive: [10] 98 % of control | [11] 95 % of control

CCc1c(Nc2ccc(Cl)c(Cl)c2)[nH]c(N)nc1=S
inactive: dose: 100.0 mg/kg/injection, schedule: Q01DX Z (ip), vehicle: methylcellulose (MC) 90 % of control | dose: 200.0 mg/kg/injection, schedule: Q01DX Z (ip), vehicle: methylcellulose (MC) 105 % of control

NC(=S)c1cccc(S(=O)(=O)Nc2ccccc2)c1
inactive: dose: 100.0 mg/kg/injection, schedule: Q01DX001 (ip), vehicle: Klucel (hydroxypropylcellulose) (HPC) 103 % of control | dose: 200.0 mg/kg/injection, schedule: Q01DX001 (ip), vehicle: Klucel (hydroxypropylcellulose) (HPC) 105 % of control | dose: 400.0 mg/kg/injection, schedule: Q01DX001 (ip), vehicle: Klucel (hydroxypropylcellulose) (HPC) 101 % of control

O=C1c2c(ccc3ccccc23)CCC1CN1CCCCC1 (centres undefined)
inactive: [10] 102 % of control | [11] 108 % of control | dose: 400.0 mg/kg/injection, schedule: Q01DX001 (ip), vehicle: saline 112 % of control

CCOc1ccc(/C=N/Nc2nnc(N/N=C/c3ccc(OCC)c(OCC)c3)c3ccccc23)cc1OCC
inactive: [9] 95 % of control

S=C1NC(c2ccccc2)NC(c2ccccc2)S1 (centres undefined)
inactive: dose: 12.0 mg/kg/injection, schedule: Q01DX009 (ip), vehicle: saline 93 % of control | [8] 90 % of control | [12] 90 % of control

O=CC(=O)c1ccccc1
inactive: [2] 100 % of control | [8] 101 % of control | [3] 105 % of control | [12] 104 % of control | dose: 75.0 mg/kg/injection, schedule: Q01DX009 (ip), vehicle: saline with Tween-80 98 % of control | [4] 107 % of control
